*1 amine or outer side, *2 acyl side, *3 side chain or, on linkers, in order; H or OH if unused. Where a SMILES comes first, the peptide text is derived from it. Bridges are numbered along the chain shown (N, C = ends). [ ]: non-standard residue; d: D form. The star is where a group is joined. ξ: configuration not given here. Phe(3-(CH2)7CO) = O=C([C@H](Cc1cccc(CCCCCCCC(=O)[*:3])c1)N[*:1])[*:2]; Azelaoyl = O=C(CCCCCCCC(=O)[*:2])[*:1]; Suberoyl = O=C(CCCCCCC(=O)[*:2])[*:1]; Glutaryl = O=C(CCCC(=O)[*:2])[*:1]; X1 = CCCC(N[*:1])C(=O)C(=O)[*:2]; Chg = N[C@H](C(=O)O)C1CCCCC1; Phg = N[C@H](C(=O)O)c1ccccc1; ξChg = NC(C(=O)O)C1CCCCC1; OtBu = CC(C)(C)O*
Target: Recombinant heterodimeric HCV NS3/NS4A protease (strain 1a) (Hepatitis C virus genotype 1a, UniProt P27958)
Experiment: biochemical
Design: species or system HCV (strain 1a)

Sequence of Recombinant heterodimeric HCV NS3/NS4A protease (strain 1a) (P27958 1027-1657 limits assumed): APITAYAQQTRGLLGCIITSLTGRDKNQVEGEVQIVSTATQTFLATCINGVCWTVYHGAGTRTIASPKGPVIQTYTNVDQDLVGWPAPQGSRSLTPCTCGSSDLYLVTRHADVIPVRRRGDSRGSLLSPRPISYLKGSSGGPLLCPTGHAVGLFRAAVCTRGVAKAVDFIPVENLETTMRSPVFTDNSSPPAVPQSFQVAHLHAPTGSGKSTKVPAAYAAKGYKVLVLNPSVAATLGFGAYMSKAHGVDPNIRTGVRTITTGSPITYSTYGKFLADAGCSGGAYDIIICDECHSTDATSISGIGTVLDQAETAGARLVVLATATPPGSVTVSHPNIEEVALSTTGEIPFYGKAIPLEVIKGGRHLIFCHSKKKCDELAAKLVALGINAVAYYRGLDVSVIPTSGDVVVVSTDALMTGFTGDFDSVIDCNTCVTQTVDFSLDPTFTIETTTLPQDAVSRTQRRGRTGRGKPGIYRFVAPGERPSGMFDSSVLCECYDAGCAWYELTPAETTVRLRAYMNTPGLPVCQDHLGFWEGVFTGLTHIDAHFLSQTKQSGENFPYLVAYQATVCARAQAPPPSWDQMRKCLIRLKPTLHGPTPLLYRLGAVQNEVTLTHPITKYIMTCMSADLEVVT
Sequence of Recombinant heterodimeric HCV NS3/NS4A protease (strain 1a) (P27958 1658-1711 partner limits assumed): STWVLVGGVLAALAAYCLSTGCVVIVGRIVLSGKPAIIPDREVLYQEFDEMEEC

SMILES | Ki [µM]
CCCC(NC(=O)C1Cc2cccc(c2)Oc2ccc(cc2)CCC(=O)NC(C2CCCCC2)C(=O)N1)C(=O)C(=O)NCC(=O)NC(C(=O)O)c1ccccc1 (centres unmarked) [Example 2] | 0.001 to 1
CCCC(NC(=O)C1Cc2cccc(c2)Oc2ccc(cc2)CCC(=O)NC(C2CCCCC2)C(=O)N1)C(=O)C(=O)NCC(=O)OC(C)(C)C (centres unmarked) [Example 3] | 1.1 to 100
CCCC(NC(=O)C1Cc2cccc(c2)Oc2ccc(cc2)CCC(=O)NC(C2CCCCC2)C(=O)N1)C(=O)C(=O)NCC(=O)O (centres unmarked) [Example 4] | 1.1 to 100
CCCC(NC(=O)C1Cc2cccc(c2)Oc2ccc(cc2)CCCC(=O)NC(C2CCCCC2)C(=O)N1)C(=O)C(=O)NCC(=O)NC(C(=O)O)c1ccccc1 (centres unmarked) [Example 6] | 0.001 to 1
CCCC(NC(=O)C1Cc2cccc(c2)Oc2ccc(cc2)CCCCC(=O)NC(C2CCCCC2)C(=O)N1)C(=O)C(=O)NCC(=O)NC(C(=O)OC(C)(C)C)c1ccccc1 (centres unmarked) [Example 7] | 1.1 to 100
CCCC(NC(=O)C1Cc2cccc(c2)Oc2ccc(cc2)CCCCC(=O)NC(C2CCCCC2)C(=O)N1)C(=O)C(=O)NCC(=O)NC(C(=O)O)c1ccccc1 (centres unmarked) [Example 8] | 0.001 to 1
CCCC(NC(=O)C1Cc2cccc(c2)Oc2ccc(cc2)CCC(=O)NCC(=O)N1)C(=O)C(=O)NCC(=O)NC(C(=O)O)c1ccccc1 (centres unmarked) [Example 10] | 1.1 to 100
CCCC(NC(=O)[C@@H]1Cc2cccc(c2)OCCCCCCC(=O)N[C@@H](C2CCCCC2)C(=O)N1)C(=O)C(=O)NCC(=O)N[C@H](C(=O)OC(C)(C)C)c1ccccc1 (some centres unmarked) [Example 11] | 1.1 to 100
CCCC(NC(=O)[C@@H]1Cc2cccc(c2)OCCCCCCC(=O)N[C@@H](C2CCCCC2)C(=O)N1)C(=O)C(=O)NCC(=O)N[C@H](C(=O)O)c1ccccc1 (some centres unmarked) [Example 12] | 0.001 to 1
CCCC(NC(=O)[C@@H]1Cc2cccc(c2)OCCCCCC(=O)N[C@@H](C2CCCCC2)C(=O)N1)C(=O)C(=O)NCC(=O)N[C@H](C(=O)OC(C)(C)C)c1ccccc1 (some centres unmarked) [Example 13] | 1.1 to 100
CCCC(NC(=O)[C@@H]1Cc2cccc(c2)OCCCCCC(=O)N[C@@H](C2CCCCC2)C(=O)N1)C(=O)C(=O)NCC(=O)N[C@H](C(=O)O)c1ccccc1 (some centres unmarked) [Example 14] | 1.1 to 100
CCCC(NC(=O)[C@@H]1Cc2cccc(c2)C=CCCCCCC(=O)N[C@@H](C2CCCCC2)C(=O)N1)C(=O)C(=O)NCC(=O)N[C@H](C(=O)OC(C)(C)C)c1ccccc1 (some centres unmarked) [Example 15] | 1.1 to 100
CCCC(NC(=O)[C@@H]1Cc2cccc(c2)C=CCCCCCC(=O)N[C@@H](C2CCCCC2)C(=O)N1)C(=O)C(=O)NCC(=O)N[C@H](C(=O)O)c1ccccc1 (some centres unmarked) [Example 16] | 0.001 to 1
CCCC(NC(=O)[C@@H]1Cc2cccc(c2)CCCCCCCC(=O)N[C@@H](C2CCCCC2)C(=O)N1)C(=O)C(=O)NCC(=O)N[C@H](C(=O)OC(C)(C)C)c1ccccc1 (some centres unmarked) [Example 17] ([Chg][Phe(3-(CH2)7CO)][X1]G[Phg]-OtBu; lactam N-2) | 1.1 to 100
CCCC(NC(=O)[C@@H]1Cc2cccc(c2)CCCCCCCC(=O)N[C@@H](C2CCCCC2)C(=O)N1)C(=O)C(=O)NCC(=O)N[C@H](C(=O)O)c1ccccc1 (some centres unmarked) [Example 18] ([Chg][Phe(3-(CH2)7CO)][X1]G[Phg]-OH; lactam N-2) | 0.001 to 1
CCCC(NC(=O)[C@@H]1Cc2cccc(c2)OCCCCCNC(=O)N[C@@H](C2CCCCC2)C(=O)N1)C(=O)C(=O)NCC(=O)N[C@H](C(=O)OC(C)(C)C)c1ccccc1 (some centres unmarked) [Example 19] | 1.1 to 100
CCCC(NC(=O)[C@@H]1Cc2cccc(c2)OCCCCCNC(=O)N[C@@H](C2CCCCC2)C(=O)N1)C(=O)C(=O)NCC(=O)N[C@H](C(=O)O)c1ccccc1 (some centres unmarked) [Example 20] | 0.001 to 1
CCCC(NC(=O)[C@@H]1Cc2cccc(c2)OCCCCCCOC(=O)N[C@@H](C2CCCCC2)C(=O)N1)C(=O)C(=O)NCC(=O)N[C@H](C(=O)O)c1ccccc1 (some centres unmarked) [Example 22] | 0.001 to 1

SMILES | Ki [µM]
CCCC(NC(=O)C1Cc2cn(cn2)CCCCCCCC(=O)NC(C2CCCCC2)C(=O)N1)C(=O)C(=O)NCC(=O)NC(C(=O)OC(C)(C)C)c1ccccc1 (centres unmarked) [Example 23] | 1.1 to 100
CCCC(NC(=O)[C@@H]1Cc2cn(cn2)CCCCCCCC(=O)N[C@@H](C2CCCCC2)C(=O)N1)C(=O)C(=O)NCC(=O)N[C@H](C(=O)O)c1ccccc1 (some centres unmarked) [Example 24] | 1.1 to 100
CCCC(NC(=O)C1Cc2cccc(c2)Oc2ccc(cc2)CC(NC(=O)OC(C)(C)C)C(=O)NC(C2CCCCC2)C(=O)N1)C(=O)C(=O)NCC(=O)O (centres unmarked) [Example 28] | 1.1 to 100
CCCC(NC(=O)C1Cc2cccc(c2)Oc2ccc(cc2)CC(NC(C)=O)C(=O)NC(C2CCCCC2)C(=O)N1)C(=O)C(=O)NCC(=O)NC(C(=O)OC(C)(C)C)c1ccccc1 (centres unmarked) [Example 29] | 1.1 to 100
CCCC(NC(=O)[C@@H]1Cc2cccc(c2)Oc2ccc(cc2)CC(NC(C)=O)C(=O)N[C@@H](C2CCCCC2)C(=O)N1)C(=O)C(=O)NCC(=O)N[C@H](C(=O)O)c1ccccc1 (some centres unmarked) [Example 30] | 0.001 to 1
CCCC(NC(=O)C1Cc2cccc(c2)Oc2ccc(cc2)CC(NC(C)=O)C(=O)NC(C2CCCCC2)C(=O)N1)C(=O)C(=O)NCC(=O)OC(C)(C)C (centres unmarked) [Example 31] | 1.1 to 100
CCCC(NC(=O)[C@@H]1Cc2cccc(c2)Oc2ccc(cc2)CC(NC(C)=O)C(=O)N[C@@H](C2CCCCC2)C(=O)N1)C(=O)C(=O)NCC(=O)O (some centres unmarked) [Example 32] | 1.1 to 100
CCCC(NC(=O)C1Cc2cccc(c2)Oc2ccc(cc2)CCC(=O)NC(C2CCCCC2)C(=O)O1)C(=O)C(=O)NCC(=O)NC(C(=O)OC(C)(C)C)c1ccccc1 (centres unmarked) [Example 33] | 1.1 to 100
CCCC(NC(=O)C1Cc2cccc(c2)Oc2ccc(cc2)CCC(=O)NC(C2CCCCC2)C(=O)O1)C(=O)C(=O)NCC(=O)NC(C(=O)O)c1ccccc1 (centres unmarked) [Example 34] | 1.1 to 100
CCCC(NC(=O)[C@H]1Cc2cccc(c2)Oc2ccc(cc2)CCC(=O)N[C@@H](C2CCCCC2)C(=O)O1)C(=O)C(=O)NCC(=O)N[C@H](C(=O)OC(C)(C)C)c1ccccc1 (some centres unmarked) [Example 37] | 1.1 to 100
CCCC(NC(=O)[C@H]1Cc2cccc(c2)Oc2ccc(cc2)CCC(=O)N[C@@H](C2CCCCC2)C(=O)O1)C(=O)C(=O)NCC(=O)N[C@H](C(=O)O)c1ccccc1 (some centres unmarked) [Example 38] | 1.1 to 100
CCCC(NC(=O)C1Cc2cccc(c2)OCCCCCCOC(=O)NC(C2CCCCC2)C(=O)N1)C(=O)C(=O)NCC(=O)N[C@H](C(=O)N(C)C)c1ccccc1 (some centres unmarked) [Example 39] | 0.001 to 1
CCCC(NC(=O)[C@@H]1CCCCNC(=O)CCCC(=O)NC(C2CCCCC2)C(=O)N1)C(=O)C(=O)NCC(=O)N[C@H](C(N)=O)c1ccccc1 (some centres unmarked) [Example 40] ([ξChg]K[X1]G[Phg]-NH2; linker N-2 via Glutaryl) | 1.1 to 100
CCCC(NC(=O)[C@@H]1CCCCNC(=O)CCCCCCC(=O)N[C@@H](C2CCCCC2)C(=O)N1)C(=O)C(=O)NCC(=O)N[C@H](C(N)=O)c1ccccc1 (some centres unmarked) [Example 41] ([Chg]K[X1]G[Phg]-NH2; linker N-2 via Suberoyl) | 0.001 to 1
CCCC(NC(=O)[C@@H]1CCCCNC(=O)CCCCCCCC(=O)N[C@@H](C2CCCCC2)C(=O)N1)C(=O)C(=O)NCC(=O)N[C@H](C(N)=O)c1ccccc1 (some centres unmarked) [Example 42] ([Chg]K[X1]G[Phg]-NH2; linker N-2 via Azelaoyl) | 1.1 to 100
CCCC(NC(=O)[C@@H]1CCCCNC(=O)Cc2cccc(c2)CC(=O)N[C@@H](C2CCCCC2)C(=O)N1)C(=O)C(=O)NCC(=O)N[C@H](C(N)=O)c1ccccc1 (some centres unmarked) [Example 43] | 0.001 to 1
CCCC(NC(=O)[C@@H]1CCCCNC(=O)Cc2ccc(cc2)CC(=O)N[C@@H](C2CCCCC2)C(=O)N1)C(=O)C(=O)NCC(=O)N[C@H](C(N)=O)c1ccccc1 (some centres unmarked) [Example 44] | 0.001 to 1
